These are literature values, as cited in patent publication US20230330115A1 (priority 2022, published 2023).

One data set has as its target CB1 receptor. The following applies: read-out: Binding Affinity CB1.
Data set [1] deals with T1, CB2 (Homo sapiens, UniProt P34972). The following applies: read-out: Binding Affinity CB2.
For a further data set, the target named is CB1 (Homo sapiens, UniProt P21554). To be noted: read-out: Functional Activity CB1.
Data set [2] concerns the target T1, CB2. To be noted: read-out: Functional Activity CB2.
The test system of a further data set is rodents. The following applies: rodents administered THCB.

Entries after “also recorded” stand apart in the source; their conditions may differ.

Sequence of CB1 (P21554 whole entry): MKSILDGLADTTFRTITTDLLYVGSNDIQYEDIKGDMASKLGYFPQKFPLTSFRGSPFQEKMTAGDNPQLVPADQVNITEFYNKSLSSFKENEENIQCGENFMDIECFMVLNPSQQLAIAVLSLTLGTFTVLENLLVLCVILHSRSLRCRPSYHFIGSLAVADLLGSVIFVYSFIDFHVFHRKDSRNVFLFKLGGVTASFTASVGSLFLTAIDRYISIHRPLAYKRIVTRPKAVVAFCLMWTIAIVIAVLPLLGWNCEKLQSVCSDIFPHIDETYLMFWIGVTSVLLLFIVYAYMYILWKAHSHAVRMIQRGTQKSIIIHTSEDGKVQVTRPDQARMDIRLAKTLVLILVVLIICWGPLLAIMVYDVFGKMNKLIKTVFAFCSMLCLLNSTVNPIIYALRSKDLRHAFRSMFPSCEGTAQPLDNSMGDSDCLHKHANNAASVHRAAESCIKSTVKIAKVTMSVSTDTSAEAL
T1 sequence (P34972 whole entry): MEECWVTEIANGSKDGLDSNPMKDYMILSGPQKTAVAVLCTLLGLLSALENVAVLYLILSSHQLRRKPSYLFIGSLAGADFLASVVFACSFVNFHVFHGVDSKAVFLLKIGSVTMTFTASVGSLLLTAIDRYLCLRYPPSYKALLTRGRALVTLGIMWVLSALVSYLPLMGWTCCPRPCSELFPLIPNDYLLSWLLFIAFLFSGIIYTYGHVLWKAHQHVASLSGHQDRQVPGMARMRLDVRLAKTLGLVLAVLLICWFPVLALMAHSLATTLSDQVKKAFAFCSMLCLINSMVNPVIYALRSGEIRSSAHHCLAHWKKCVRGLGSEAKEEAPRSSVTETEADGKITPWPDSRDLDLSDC

Take `CCCCCc1cc2c(c(O)c1C(=O)O)[C@@H]1C=C(C)CC[C@H]1C(C)(C)O2` (relative stereo) [THCA, (—)trans-delta-9-tetrahydrocannabinolic acid]: the Ki on CB1 receptor is 1.29 µM; on CB2 [1] it was 1.65 µM. Besides, the EC50 on CB1 and on CB2 [2] was over 10 µM in each case.
With `CCCCc1cc(O)c2c(c1)OC(C)(C)[C@@H]1CCC(C)=C[C@@H]21` (relative stereo) [THCB, (—)trans-delta-9-tetrahydrocannabibutol], the Ki at CB1 receptor is 0.015 µM. In the data set with mice (first phase (10 mg/kg)), the “catalepsy, analgesia, hypolocomotion” value is on record as “no significant catalepsy, analgesia, or hypolocomotion; also recorded: no significant catalepsy, analgesia, or hypo locomotion” and the “hypothermic effect (decrease)” value is “less than 0.5 °C”. Further, the “activity type corroborated by Tetrad Test” value in the data set on mice (mice) is given as “CB1 partial agonistic activity”. In the data set on mice (second phase (20 mg/kg)), the catalepsy and analgesia entry was “significant direct effect on catalepsy and analgesia; also recorded: very significant catalepsy and analgesia effect”; the hypolocomotion result is “slight direct effect on hypolocomotion”; the hypothermic effect entry was “appears to reverse; also recorded: reversal in the second phase”. In the data set on rodents, the formalin test outcome was “possible analgesic and anti-inflammatory properties”.
Take `CCCCCCCc1cc(O)c2c(c1)OC(C)(C)[C@@H]1CCC(C)=C[C@@H]21` (relative stereo) [THCP, (—)trans-delta-9-tetrahydrocannabiphorol]: the Ki on CB1 receptor is 0.0012 µM. Further, the “hypothermia, dose dependence” value in the data set with mice (5 mg/Kg vs 10 mg/Kg) is on record as “does appear to increase at higher doses”. Besides, the “potency at CB1 relative to THC” value with mice (Tetrad Test in mice, even at low doses (5 mg/kg of body weight)) is on record as “about 30 times”. In addition, in the data set with mice (mice), the “effects in mice (Tetrad Test criteria)” value was “hypomotility, analgesia, catalepsy and decreased rectal temperature”. The “dose dependence of the effects” value in the data set with mice (mice, increasing dose (5 mg/Kg vs 10 mg/Kg)) is recorded as “do not appear to increase as the dose increases”.
As to `CCCc1cc(O)c2c(c1)OC(C)(C)[C@@H]1CCC(C)=C[C@@H]21` (single isomer, unassigned) [THCV, (—)trans-delta-9-tetrahydrocannabivarin], the Ki on CB1 receptor is 0.022 ± 0.005 µM; on CB2 [1], 0.105 ± 0.021 µM. Besides, the EC50 at CB1 and at CB2 [2] was over 10 µM in each case.
In the case of `CCCCCc1cc(O)c2c(c1)OC(C)(C)[C@@H]1CCC(CO)=C[C@@H]21` [11-Hydroxy, 11-OH-delta-9-tetrahydrocannabinol], on CB1 receptor, the Ki was under 0.2 µM. At CB1, the EC50 was under 0.2 µM.
As to `C=C(C)[C@@H]1CCC(C)=C[C@H]1c1c(O)cc(CCC)cc1O` [CBDV, Cannabidivarin], the Ki was 0.503 ± 0.058 µM on CB1 receptor and 3.97 µM on CB2 [1]. Also, the EC50 is over 10 µM on CB1 and 0.003 ± 0.008 µM on CB2 [2].
`CCCCCc1cc(O)c(C/C=C(\C)CCC=C(C)C)c(O)c1` [CBG, Cannabigerol]: the Ki on CB1 receptor is 0.44 µM. The EC50 on CB1 was over 10 µM; at CB2 [2] it was 1.16 µM.
Regarding `CCCCCc1cc(O)c(C/C=C(\C)CCC=C(C)C)c(O)c1C(=O)O` [CBGA, Cannabigerolic acid], the Ki is 4.53 µM at CB1 receptor and over 10 µM at CB2 [1]. Further, the EC50 is 0.182 ± 0.032 µM on CB1 and 0.118 ± 0.027 µM on CB2 [2].
On to `CCCCCc1cc(O)c2c(c1)OC(C)(C)c1ccc(C)cc1-2` [CBN, Cannabinol], for which the values for the Ki at CB1 receptor and at CB2 [1] were 0.368 ± 0.121 µM and 0.168 ± 0.032 µM, respectively. Further, the EC50 was 0.307 ± 0.039 µM at CB1 and 0.289 ± 0.038 µM on CB2 [2].
With Cannabichromanone D [CBCN D], the Ki on CB1 receptor was 7.12 µM; on CB2 [1] it was 2.83 µM. For the same molecule, the figures for the EC50 at CB1 and at CB2 [2] were 0.008 ± 0.0009 µM and 3.95 µM, respectively.
